Laboratory results reported in PMC5642273 (Biochemistry, 2017).
Where two headings read alike, the source gives them in different places.

Columns and labels:
[1] = molecular target: T1, (+)-limonene synthase [(+)-LS] (Citrus sinensis, UniProt A0A1C9J6A7); assay: X-ray crystal structure; format: biochemical
[2] = molecular target: T1, (+)-limonene synthase [(+)-LS]; assay: X-ray crystal structure; format: biochemical; remark: listed apart in the source

T1 sequence (A0A1C9J6A7 53-607): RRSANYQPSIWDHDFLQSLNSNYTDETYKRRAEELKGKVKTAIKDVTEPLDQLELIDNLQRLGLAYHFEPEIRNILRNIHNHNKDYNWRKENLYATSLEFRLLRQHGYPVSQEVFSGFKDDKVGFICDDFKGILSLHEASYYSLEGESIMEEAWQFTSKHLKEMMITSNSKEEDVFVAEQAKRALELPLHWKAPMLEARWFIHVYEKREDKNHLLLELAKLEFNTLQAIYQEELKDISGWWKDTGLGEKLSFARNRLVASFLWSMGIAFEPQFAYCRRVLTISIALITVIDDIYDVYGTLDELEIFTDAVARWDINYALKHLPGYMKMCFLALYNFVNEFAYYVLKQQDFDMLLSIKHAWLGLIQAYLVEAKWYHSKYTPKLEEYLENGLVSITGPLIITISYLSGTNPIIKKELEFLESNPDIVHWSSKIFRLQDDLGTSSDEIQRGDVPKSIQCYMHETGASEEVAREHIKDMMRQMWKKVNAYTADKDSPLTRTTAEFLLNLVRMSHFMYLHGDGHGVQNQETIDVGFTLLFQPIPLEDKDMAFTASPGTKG

SMILES | Ki [1] [µM] | Ki [2] [µM]
CC(C)=CCC/C(C)=C(\F)COP(=O)(O)OP(=O)(O)O [FGPP, 2-fluorogeranyl diphosphate] | 2.4 ± 0.5 | –
CC(C)=CCC/C(C)=C(/F)COP(=O)(O)OP(=O)(O)O [FNPP, 2-fluoroneryl diphosphate] | – | 39.5 ± 5.2
